This passage reports inhibition and IC50 results from patent US9422240B2, “Partially saturated nitrogen-containing heterocyclic compound” (TAISHO PHARMACEUTICAL CO., LTD, priority 2012, dated 2016).

Test [1] addresses T1, human PHD2 (Homo sapiens (Human), UniProt Q9GZT9). In words: Test 2: human PHD2 inhibitory activity, fluorescence polarization assay of HIF-1α peptide proline hydroxylation. To be noted: for inhibition at 1 µM: test compound's concentration 1 μM, Test 2, fluorescence polarization assay, read-out: Percent inhibition (% at 1 μM). The class given is biochemical. In short, it runs like this: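 Enzyme from lysate of cells expressing human PHD2 (NM_022051), 40 ng/well, added to compound and 19-residue HIF-1α peptide substrate; 20 min at 30° C., EDTA quench. Prolyl hydroxylation detected by HIF-OH antibody binding via fluorescence polarization; inhibition relative to compound-free wells.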

The target in test [2] is T1, human PHD2. Kind of test: Test 1: human PHD2 inhibitory activity, [14C]-2-oxoglutarate to [14C]-succinic acid radiometric assay with HIF-1α peptide. It is filed as biochemical. To be noted: test compound's concentration 1 μM; Test 1, [14C]-2-oxoglutarate radiometric assay; read-out: Percent inhibition (% at 1 μM). The protocol: (1) Expression and Preparation of Human PHD2
Human PHD2 was expressed in insect cells (HighFive cells). A registered sequence of human PHD2 (NM_022051) was introduced into the pFastBacl vector (Invitrogen), and the sequence was verified. The vector was introduced into Sf9 insect cells (Invitrogen) to acquire human PHD2 baculovirus. HighFive insect cells (Invitrogen) were infected with this recombinant virus and cultured at 27° C. for 72 hours; thereafter, a cell lysis solution containing various protease inhibitors was added and the cells were disrupted to form a suspension. The suspension of disrupted cells was centrifuged at 4° C. and 100,000×g for 30 minutes and the supernatant was recovered as a cell lysate.
(2) Measurement of Human PHD2 Inhibitory Activity
The activity of human PHD2 enzyme was measured with a substrate which is a 19-residue partial peptide based on the sequence of HIF-1α. Specifically, the conversion of 2-oxoglutarate to succinic acid which would occur simultaneously with the hydroxylation of a proline residue in the peptide with the PHD2 enzyme was utilized. To be more specific, [^14C]-2-oxogiutarate was added to the reaction system to initiate an enzymatic reaction and the [^14C]-2-oxoglutarate remaining after the reaction was bound to 2,4-dinitrophenylhydrazine (DNPH), with the resulting precipitate being removed by passage through a filter. Subsequently, radiation counting was conducted on the resulting [^14C]-succinic acid.
A test compound, HIF-1αpeptide and [^14C]-2-oxoglutarate were preliminarily added onto 96-well plates and reaction was initiated by adding a human PHD2 enzyme solution (4 μg/well). After 15-min incubation at 37° C., a DNPH-containing quench solution was added and the mixture was allowed to stand at room temperature for 30 minutes. Thereafter, an excess of non-radiolabelled 2-oxoglutarate was added and the mixture was allowed to stand at room temperature for 60 minutes. The resulting precipitate was removed by passage through a filter and the radiation count on the [^14C]-succinic acid was quantified (with MicroBeta). Radiation counting was conducted for each well and the human PHD2 inhibitory activity of each test compound was calculated on the basis of the values for the substrate-free group and the test compound-free group.

T1 sequence (Q9GZT9 whole entry): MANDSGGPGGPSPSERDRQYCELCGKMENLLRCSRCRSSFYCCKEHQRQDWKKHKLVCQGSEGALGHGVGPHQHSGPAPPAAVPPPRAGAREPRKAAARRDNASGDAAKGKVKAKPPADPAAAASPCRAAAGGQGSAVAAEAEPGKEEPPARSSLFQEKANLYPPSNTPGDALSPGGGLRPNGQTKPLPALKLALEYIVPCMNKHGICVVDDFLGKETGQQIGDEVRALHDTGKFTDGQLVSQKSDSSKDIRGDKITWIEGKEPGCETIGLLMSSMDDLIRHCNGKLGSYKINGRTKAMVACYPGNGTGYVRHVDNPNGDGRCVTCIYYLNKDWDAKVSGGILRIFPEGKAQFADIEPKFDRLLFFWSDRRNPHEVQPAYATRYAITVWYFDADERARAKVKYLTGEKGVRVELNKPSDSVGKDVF

Turning to `O=C(O)CNC(=O)C1=C(O)CCN(Cc2cnc(-c3ccccc3)s2)C1=O` [Ex. 1-44], the inhibition at 1 µM came out at 91% at human PHD2 [1] and 87% on human PHD2 [2].

`O=C(O)CNC(=O)C1=C(O)CCN(Cc2cc(-c3ccccc3)no2)C1=O` [Ex. 1-45]: the inhibition at 1 µM at human PHD2 [1] was found to be 88%; on human PHD2 [2] it was 82%.

`O=C(O)CNC(=O)C1=C(O)CCN(Cc2ccc3c(c2)CCCC3)C1=O` [Ex. 1-46]: the figures for the inhibition at 1 µM on human PHD2 [1] and on human PHD2 [2] were 84% and 78%, respectively.

On to `COc1ccc(CN2CCC(O)=C(C(=O)NCC(=O)O)C2=O)cc1` [Ex. 1-48], for which the results for the inhibition at 1 µM on human PHD2 [1] and on human PHD2 [2] were 79% and 67%, respectively.

For `O=C(O)CNC(=O)C1=C(O)CC(c2ccccc2)N(Cc2ccccc2)C1=O` (stereo not drawn) [Ex. 1-49], the inhibition at 1 µM on human PHD2 [1] and on human PHD2 [2] was 55% in each case.

As for `O=C(O)CNC(=O)C1=C(O)CC(c2ccccc2)N(Cc2ccc(-c3ccccc3)cc2)C1=O` (stereo not drawn) [Ex. 1-50], the results for the inhibition at 1 µM on human PHD2 [1] and on human PHD2 [2] were 83% and 77%, respectively.

For the compound `O=C(O)CNC(=O)C1=C(O)[C@@H]2CCCC[C@@H]2N(Cc2ccc(-c3ccccc3)cc2)C1=O` [Ex. 1-51], the inhibition at 1 µM was 73% on human PHD2 [1] and 58% on human PHD2 [2].

As to `O=C(O)CNC(=O)C1=C(O)[C@@H]2CCCCC2N(Cc2ccc(-c3ccccc3)cc2)C1=O` (stereo partly drawn) [Ex. 1-52], the inhibition at 1 µM at human PHD2 [1] was found to be 78%; on human PHD2 [2], 58%.

Regarding `CCc1ccc(CN2CCC(O)=C(C(=O)NCC(=O)O)C2=O)cc1` [Ex. 1-53], the inhibition at 1 µM on human PHD2 [1] and on human PHD2 [2] was 78% throughout.

As to `O=C(O)CNC(=O)C1=C(O)CCN(Cc2ccc(C(F)(F)F)cc2C(F)(F)F)C1=O` [Ex. 1-54], the inhibition at 1 µM on human PHD2 [1] came to 71%; on human PHD2 [2] it was 60%.

Turning to `CC(C)(C)c1ccc(CN2CCC(O)=C(C(=O)NCC(=O)O)C2=O)cc1` [Ex. 1-55], the inhibition at 1 µM on human PHD2 [1] turned out to be 79%; at human PHD2 [2] it was 75%.

In the case of `O=C(O)CNC(=O)C1=C(O)C(c2ccccc2)CN(Cc2ccc(-c3ccccc3)cc2)C1=O` (stereo not drawn) [Ex. 1-57], the inhibition at 1 µM came to 83% on human PHD2 [1] and 58% at human PHD2 [2].

`O=C(O)CNC(=O)C1=C(O)CCN(Cc2cc(C(F)(F)F)cc(C(F)(F)F)c2)C1=O` [Ex. 1-59]: the inhibition at 1 µM came out at 54% at human PHD2 [1] and 41% at human PHD2 [2].

In the case of `Cc1ccc(CN2CCC(O)=C(C(=O)NCC(=O)O)C2=O)c(C)c1` [Ex. 1-60], the inhibition at 1 µM at human PHD2 [1] is 76%; at human PHD2 [2], 66%.

As to `COc1cccc(CN2CCC(O)=C(C(=O)NCC(=O)O)C2=O)c1` [Ex. 1-61], the inhibition at 1 µM at human PHD2 [1] is 71%; on human PHD2 [2] it was 58%.

In the case of `COc1ccc(CN2CCC(O)=C(C(=O)NCC(=O)O)C2=O)c(C)c1` [Ex. 1-62], the inhibition at 1 µM is 68% on human PHD2 [1] and 65% on human PHD2 [2].

As to `O=C(O)CNC(=O)C1=C(O)CC2(CCCCC2)N(Cc2ccc(C(F)(F)F)cc2)C1=O` [Ex. 1-63], the inhibition at 1 µM was found to be 69% at human PHD2 [1] and 43% at human PHD2 [2].

Regarding `O=C(O)CNC(=O)C1=C(O)C2(CCOCC2)CN(Cc2ccc(C(F)(F)F)cc2)C1=O` [Ex. 1-64], the inhibition at 1 µM turned out to be 81% at human PHD2 [1] and 80% on human PHD2 [2].

In the case of `CSc1ccc(CN2CCC(O)=C(C(=O)NCC(=O)O)C2=O)cc1` [Ex. 1-65], the inhibition at 1 µM on human PHD2 [1] was found to be 85%; on human PHD2 [2], 84%.

With `O=C(O)CNC(=O)C1=C(O)CCN(Cc2cccc(Cl)c2)C1=O` [Ex. 1-66], the values for the inhibition at 1 µM on human PHD2 [1] and on human PHD2 [2] were 77% and 80%, respectively.

Take `O=C(O)CNC(=O)C1=C(O)CCN(Cc2ccc(Cl)c(Cl)c2)C1=O` [Ex. 1-67]: the results for the inhibition at 1 µM on human PHD2 [1] and on human PHD2 [2] were 89% and 84%, respectively.

As to `O=C(O)CNC(=O)C1=C(O)CCN(Cc2cccc(OC(F)(F)F)c2)C1=O` [Ex. 1-68], the figures for the inhibition at 1 µM at human PHD2 [1] and on human PHD2 [2] were 66% and 67%, respectively.

Turning to `CCOc1ccc(CN2CCC(O)=C(C(=O)NCC(=O)O)C2=O)cc1` [Ex. 1-71], the inhibition at 1 µM on human PHD2 [1] turned out to be 85%; on human PHD2 [2], 81%.

In turn, `O=C(O)CNC(=O)C1=C(O)CCN(Cc2ccc(Oc3ccccc3)nc2)C1=O` [Ex. 1-72] showed an IC50 against human PHD2 [1] (human PHD2, fluorescence polarization assay, 20-min incubation at 30° C.) of 94 nM. Besides, the inhibition at 1 µM on human PHD2 [1] came out at 89%; at human PHD2 [2], 98%.

Turning to `O=C(O)CNC(=O)C1=C(O)CCN(Cc2ccc(-c3ccccc3)nc2)C1=O` [Ex. 1-73], the inhibition at 1 µM on human PHD2 [1] came to 90%; at human PHD2 [2], 99%.

In the case of `O=C(O)CNC(=O)C1=C(O)CCN(Cc2ccc(Cl)c(C(F)(F)F)c2)C1=O` [Ex. 1-74], the inhibition at 1 µM at human PHD2 [1] was 86%; on human PHD2 [2], 80%.

For the compound `O=C(O)CNC(=O)C1=C(O)CC(Cc2ccccc2)N(Cc2ccc(-c3ccccc3)cc2)C1=O` (stereo not drawn) [Ex. 1-75], the inhibition at 1 µM on human PHD2 [1] is 84%; on human PHD2 [2], 54%.

For `O=C(O)CNC(=O)C1=C(O)CC(CCc2ccccc2)N(Cc2ccc(-c3ccccc3)cc2)C1=O` (stereo not drawn) [Ex. 1-76], the inhibition at 1 µM on human PHD2 [1] worked out at 79%; at human PHD2 [2] it was 40%.

For `CC1CC(O)=C(C(=O)NCC(=O)O)C(=O)N1Cc1ccc(-c2ccccn2)cc1` (stereo not drawn) [Ex. 1-77], the results for the inhibition at 1 µM at human PHD2 [1] and on human PHD2 [2] were 85% and 74%, respectively.

Regarding `CC1CC(O)=C(C(=O)NCC(=O)O)C(=O)N1Cc1ccc(C(F)(F)F)cc1` (stereo not drawn) [Ex. 1-78], the inhibition at 1 µM at human PHD2 [1] is 78%; on human PHD2 [2] it was 70%.

Consider `Cc1ccc(CN2C(=O)C(C(=O)NCC(=O)O)=C(O)CC2C)cc1` (stereo not drawn) [Ex. 1-79], for which the inhibition at 1 µM was determined as 71% on human PHD2 [1] and 64% on human PHD2 [2].

With `CC1CC(O)=C(C(=O)NCC(=O)O)C(=O)N1CC1CCC(c2ccccc2)CC1` (stereo not drawn) [Ex. 1-80], the inhibition at 1 µM on human PHD2 [1] is 88%; on human PHD2 [2], 76%.

For the compound `O=C(O)CNC(=O)C1=C(O)CC(C(F)(F)F)N(Cc2ccc(-c3ccccc3)cc2)C1=O` (stereo not drawn) [Ex. 1-81], the inhibition at 1 µM is 64% at human PHD2 [1] and 72% on human PHD2 [2].

Turning to `O=C(O)CNC(=O)C1=C(O)C2(CCCCC2)CN(Cc2ccc(C(F)(F)F)cc2)C1=O` [Ex. 1-82], the inhibition at 1 µM is 77% at human PHD2 [1] and 51% on human PHD2 [2].

Regarding `O=C(O)CNC(=O)C1=C(O)C2(CCC2)CN(Cc2ccc(C(F)(F)F)cc2)C1=O` [Ex. 1-83], the values for the inhibition at 1 µM on human PHD2 [1] and on human PHD2 [2] were 73% and 54%, respectively.

As to `Cc1ccc(CN2C(=O)C(C(=O)NCC(=O)O)=C(O)CC23CCCCC3)cc1` [Ex. 1-84], the results for the inhibition at 1 µM on human PHD2 [1] and on human PHD2 [2] were 67% and 42%, respectively.

As to `CC1(C)CC(O)=C(C(=O)NCC(=O)O)C(=O)N1Cc1ccc(C(F)(F)F)cc1` [Ex. 1-85], the inhibition at 1 µM at human PHD2 [1] was 65%; at human PHD2 [2] it was 61%.

For the compound `Cc1ccc(CN2CC3(CCCCC3)C(O)=C(C(=O)NCC(=O)O)C2=O)cc1` [Ex. 1-86], the inhibition at 1 µM was determined as 71% at human PHD2 [1] and 48% at human PHD2 [2].

Turning to `CC(C)(C)c1ccc(-c2ccc(CN3C(=O)C(C(=O)NCC(=O)O)=C(O)CC34CCOCC4)cc2)cc1` [Ex. 1-87], the inhibition at 1 µM at human PHD2 [1] was found to be 86%; at human PHD2 [2] it was 46%.

Consider `Cc1ccc(CN2C(=O)C(C(=O)NCC(=O)O)=C(O)CC2(C)C)cc1` [Ex. 1-88], for which the inhibition at 1 µM worked out at 55% on human PHD2 [1] and 44% on human PHD2 [2].

Consider `Cc1ccc(CN2CC3(CCOCC3)C(O)=C(C(=O)NCC(=O)O)C2=O)cc1` [Ex. 1-89], for which the inhibition at 1 µM at human PHD2 [1] was found to be 72%; at human PHD2 [2] it was 69%.

Turning to `Cc1ccc(CN2CC3(CCC3)C(O)=C(C(=O)NCC(=O)O)C2=O)cc1` [Ex. 1-90], the figures for the inhibition at 1 µM at human PHD2 [1] and on human PHD2 [2] were 63% and 58%, respectively.

As for `O=C(O)CNC(=O)C1=C(O)C2(CCCCC2)CN(Cc2cnc(-c3ccccc3)s2)C1=O` [Ex. 1-91], the inhibition at 1 µM at human PHD2 [1] came out at 94%; on human PHD2 [2] it was 85%.

In the case of `Cc1ccc(CN2CC(C)C(O)=C(C(=O)NCC(=O)O)C2=O)cc1` (stereo not drawn) [Ex. 1-92], the figures for the inhibition at 1 µM at human PHD2 [1] and at human PHD2 [2] were 66% and 69%, respectively.

Take `CC1CN(Cc2ccc(-c3ccccn3)cc2)C(=O)C(C(=O)NCC(=O)O)=C1O` (stereo not drawn) [Ex. 1-93]: the values for the inhibition at 1 µM on human PHD2 [1] and on human PHD2 [2] were 81% and 80%, respectively.

Consider `CC1CC(O)=C(C(=O)NCC(=O)O)C(=O)N1Cc1cnc(-c2ccccc2)s1` (stereo not drawn) [Ex. 1-94], for which the inhibition at 1 µM stood at 92% at human PHD2 [1] and 84% on human PHD2 [2].

The term inhibition denotes the drop in the measured response relative to a control, in per cent. For orientation: IC50 means the point on the concentration scale where inhibition reaches its midpoint.
